Results as given in article PMC8434204, “Discrimination of Methionine Sulfoxide and Sulfone by Human Neutrophil Elastase” (Molecules, 2021).
Read-outs that look alike come from different tables or passages of the source. Square brackets hold non-standard residues; d marks the D form. Peptide text beside a SMILES is read from it. * marks the point of attachment. Met(O2) = CS(=O)(=O)CC[C@H](N)C(=O)O; Met(O) = CS(=O)CC[C@H](N)C(=O)O; pNA = O=[N+]([O-])c1ccc(N*)cc1; MeOSuc = COC(=O)CCC(=O)*

Tests used:
[1] = target: T1, Human neutrophil elastase (HNE) (Homo sapiens, UniProt P08246); assay: Kinetic assays of synthesized pNA substrates (Michaelis-Menten); format: biochemical
T1 construct: HNE purified from purulent human sputum (Elastin Products Company, Owensville, MO, USA); purchased Elastin Products Company, Owensville, MO, USA; host or cells: purulent human sputum (natural source)
T1 sequence (P08246 30-247 limits assumed): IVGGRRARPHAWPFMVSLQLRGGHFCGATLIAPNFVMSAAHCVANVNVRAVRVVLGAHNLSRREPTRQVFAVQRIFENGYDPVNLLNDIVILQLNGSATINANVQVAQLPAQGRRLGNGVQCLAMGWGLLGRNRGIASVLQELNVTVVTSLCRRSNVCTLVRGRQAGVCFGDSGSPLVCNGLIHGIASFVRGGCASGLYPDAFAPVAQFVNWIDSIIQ
Procedure: Figure 2 Substrate concentration versus velocity plot of candidate pNA substrates containing a P1 valine residue (A), or a P1 alanine residue (B), assayed against 3 nM active HNE. […] Data points represent the average rate observed from three replicate experiments of triplicate measurements. […] Error bars show SEM. Where not visible, error bars are smaller than the pictured data point.
(§1) For substrate library kinetic assay screen, reactions were initiated by addition of HNE purified from purulent human sputum (Elastin Products Company, Owensville, MO, USA) to triplicate microplate wells containing each substrate, and the rate of reaction determined spectrophotometrically at 405 nm. Final concentrations were 300 µM substrates and 1 µg/mL HNE in 250 µL assay buffer (100 mM Tris pH 8, 50 mM NaCl, 10% DMF, 0.05% Triton X-100). For in-depth assays of candidate substrates and inhibitors, the active site concentration of HNE was first determined by titration with A1AT. Briefly, 250 nM A1AT was serially diluted in a 96-well microplate to provide a final assay volume of 250 µL. A total of 2.5 µL of HNE stock solution (100 µg/mL) was added to each well and complex formation was allowed to proceed over a period of 20 min at RT. Assays were initiated by addition of Ac-RM(O2)PA-pNA substrate, monitoring the evolution of free para-nitroanilide at 405 nm for 90 s again at RT. Kinetic assays of synthesized pNA substrates were carried out similarly omitting the A1AT and serially diluting the substrates, KM and Vmax values were determined by GraphPad Prism 5.01 (La Jolla, CA, USA) Michaelis–Menten non-linear regression. Assays with peptide aldehyde inhibitors were carried out as with the active site titration. Inhibition constants were calculated in GraphPad Prism by non-linear regression using the Morrison equation for tight-binding inhibitors.

[2] = target: T1, Human neutrophil elastase (HNE); settings: literature value; read-out: KM, previously published value; cited from earlier work
Text: The standard substrate MeOSuc-AAPV-pNA was also synthesised to provide a benchmark against other studies. […] Acetylated forms of the P4 arginine substrates were synthesised to assess the effect of a charged N-termin ...

[3] = target: T1, Human neutrophil elastase (HNE); assay: Inhibition of HNE proteolysis by peptide aldehyde inhibitors; format: biochemical; settings: for Ki: 10 nM active HNE, 100 nM Ac-RM(O2)AA-pNA substrate (Figure 3), 20 min complex formation at RT, 405 nm, Morrison equation for tight-binding inhibitors, three replicate experiments of triplicate measurements; for Relative Potency (fold inhibition enhancement relative to Ac-RMAV-H): ratio of Ki values relative to non-oxidised Ac-RMAV-H
Procedure: Figure 3 Dose-response plot of Ac-RMAV-H peptide aldehyde inhibitor variants containing differing oxidation states of the P3 methionine residue. All assays contained 10 nM active HNE and 100 nM Ac-RM(O2)AA-pNA substrate. Data are reported as percent activity remaining compared to uninhibited controls, and data points represent the mean observed from three replicate experiments of triplicate measurements. Error bars show SEM. Where not visible, error bars are smaller than the pictured data point.
as §1

| Ki [3] [µM] | Relative Potency (fold inhibition enhancement relative to Ac-RMAV-H) [3] | Compound | kcat ([1]; 3 nM active HNE (purified from purulent human sputum), 100 mM Tris pH 8, 50 mM NaCl, 10% DMF, 0.05% Triton X-100, RT, 405 nm, Michaelis-Menten non-linear regression, three replicate experiments of triplicate measurements) [s⁻¹] | Km ([1]; 3 nM active HNE, 100 mM Tris pH 8, 50 mM NaCl, 10% DMF, 0.05% Triton X-100, RT, 405 nm, Michaelis-Menten non-linear regression, ± SEM) [µM] | kcat/KM ([1]; catalytic efficiency calculated from kcat and KM, 3 nM active HNE) [M⁻¹ s⁻¹] | Km [2] [µM] |
| --- | --- | --- | --- | --- | --- | --- |
|  |  | MeOSuc-AAPV-pNA (SMILES COC(=O)CCC(=O)N[C@@H](C)C(=O)N[C@@H](C)C(=O)N1CCC[C@H]1C(=O)N[C@H](C(=O)Nc1ccc([N+](=O)[O-])cc1)C(C)C) [standard HNE substrate synthesised as benchmark against other studies] | 2.90 | 153 ± 17.6 | 18900 | 140 |
| 5.55 | 1.3 | CC(=O)N[C@@H](CCCNC(=N)N)C(=O)N[C@@H](CC[S+](C)[O-])C(=O)N[C@@H](C)C(=O)N[C@H](C=O)C(C)C (stereo partly shown) [Ac-RM(O)AV-H] (Ac-R[Met(O)]AV-aldehyde) |  |  |  |  |
| 7.27 | 1 | CSCC[C@H](NC(=O)[C@H](CCCNC(=N)N)NC(C)=O)C(=O)N[C@@H](C)C(=O)N[C@H](C=O)C(C)C [Ac-RMAV-H] (Ac-RMAV-aldehyde) |  |  |  |  |
| 0.147 | 49.4 | CC(=O)N[C@@H](CCCNC(=N)N)C(=O)N[C@@H](CCS(C)(=O)=O)C(=O)N[C@@H](C)C(=O)N[C@H](C=O)C(C)C [Ac-RM(O2)AV-H] (Ac-R[Met(O2)]AV-aldehyde) |  |  |  |  |
